# In US12240862B2, “Inhibitors of peptidylarginine deiminases” (Gilead Sciences, Inc., priority 2020, dated 2025):
# pIC50: −log10 of the molar value.
# Molecular target: T1, human PAD4 (Homo sapiens, UniProt Q9UM07)
# T1 construct: human PAD4 (NM_012387), A2P663, was PCR amplified; His-SUMO (N, cleaved yes); made in house; host or cells: E. coli BL21(DE3)
# Test: In vitro PAD4 BAEE biochemical assay
# Settings: human PAD4, BAEE substrate; 5 nM PAD4, 2 mM calcium chloride, 3 mM BAEE; geometric mean of multiple experiments
# In short: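 Ammonia release from BAEE deimination monitored by o-phthalaldehyde amine coupling (1 h, 25 °C) after EDTA stop. Final conditions: 5 nM tag-free recombinant human PAD4 (E. coli), 2 mM CaCl2, 3 mM BAEE, pH 7.6 MOPS with DTT; 30 min compound preincubation, then 2 h reaction at 25 °C.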
# T1 sequence (Q9UM07 2-663): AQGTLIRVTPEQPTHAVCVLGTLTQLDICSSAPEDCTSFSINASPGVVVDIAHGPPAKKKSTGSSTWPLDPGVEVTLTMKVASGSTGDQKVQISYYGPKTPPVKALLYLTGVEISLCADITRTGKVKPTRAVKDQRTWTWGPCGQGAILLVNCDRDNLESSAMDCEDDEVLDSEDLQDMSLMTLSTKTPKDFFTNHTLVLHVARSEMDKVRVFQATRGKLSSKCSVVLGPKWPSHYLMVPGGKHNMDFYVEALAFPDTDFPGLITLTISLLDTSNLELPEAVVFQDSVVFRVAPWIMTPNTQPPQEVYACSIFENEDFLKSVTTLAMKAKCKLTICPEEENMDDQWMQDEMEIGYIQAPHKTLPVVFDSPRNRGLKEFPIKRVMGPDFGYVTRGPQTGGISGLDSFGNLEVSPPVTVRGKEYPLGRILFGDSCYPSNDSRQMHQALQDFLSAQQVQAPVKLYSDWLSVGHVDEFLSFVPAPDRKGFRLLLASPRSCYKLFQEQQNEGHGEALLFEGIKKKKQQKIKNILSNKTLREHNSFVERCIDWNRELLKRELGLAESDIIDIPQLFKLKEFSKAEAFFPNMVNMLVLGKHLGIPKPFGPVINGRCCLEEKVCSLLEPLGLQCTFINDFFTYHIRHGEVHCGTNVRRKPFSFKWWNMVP
row,SMILES,pIC50
1,"COc1cc(C(=O)N2[C@H]3CC[C@@H]2[C@H](N)C3)cc2nc(-c3cc4ccc([C@@H](C)NC(=O)CCC(=O)NS(=O)(=O)c5ccccc5)nc4n3CC3CC3)c(C)n12 [Example 156, ~{N}-[(1~{R})-1-[2-[7-[(1~{R},2~{R},4~{S})-2-amino-7-azabicyclo[2.2.1]heptane-7-carbonyl]-5-methoxy-3-methylimidazo [1,2-a]pyridin-2-yl]-1-(cyclopropylmethyl)pyrrolo [2,3-b]pyridin-6-yl]ethyl]-~{N}′-(benzenesulfonyl) butanediamide]",7.69
2,"COc1cc(C(=O)N2[C@H]3CC[C@@H]2[C@H](N)C3)cc2nc(-c3cc4ccc([C@@H](C)NC(=O)c5ccc(Cl)nc5)nc4n3CC3CC3)c(C)n12 [Example 48, ~{N}-[(1~{R})-1-[2-[7-[(1~{R},2~{R},4~{S})-2-amino-7-azabicyclo[2.2.1]heptane-7-carbonyl]-5-methoxy-3-methylimidazo [1,2-a]pyridin-2-yl]-1-(cyclopropylmethyl)pyrrolo[2,3-b]pyridin-6-yl]ethyl]-6-chloropyridine-3-carboxamide]",7.46
3,"COc1cc(C(=O)N2C[C@@H](F)[C@@H](N)C2)cc2nc(-c3cc4ccc(N(C(F)F)S(C)(=O)=O)nc4n3CC3CC3)c(C)n12 [Example 291, ~{N}-[2-[7-[(3~{S}, 4~{R})-3-amino-4-fluoropyrrolidine-1-carbonyl]-5-methoxy-3-methylimidazo [1,2-a]pyridin-2-yl]-1-(cyclopropylmethyl)pyrrolo [2,3-b]pyridin-6-yl]-~{N}-(difluoromethyl) methanesulfonamide]",5.20
4,"COc1cc(C(=O)N2[C@@H]3CCC[C@H]2[C@@H](N)C3)cc2nc(-c3cc4ccc(N(C(F)F)S(C)(=O)=O)nc4n3CC3CC3)c(C)n12 [Example 331, N-[2-[7-[(1R,5S,6S)-6-amino-8-azabicyclo[3.2.1]octane-8-carbonyl]-5-methoxy-3-methyl-imidazo [1,2-a]pyridin-2-yl]-1-(cyclopropylmethyl)pyrrolo [2,3-b]pyridin-6-yl]-N-(difluoromethyl) methanesulfonamide]",5.85
5,"COc1cc(C(=O)N2[C@H]3CC[C@@H]2[C@H](N)C3)cc2nc(-c3cc4ccc([C@@H](C)NC(=O)c5cnn(C)c5)nc4n3CC3CC3)c(C)n12 [Example 116, ~{N}-[(1~{R})-1-[2-[7-[(1~{R},2~{R},4~{S})-2-amino-7-azabicyclo[2.2.1]heptane-7-carbonyl]-5-methoxy-3-methylimidazo [1,2-a]pyridin-2-yl]-1-(cyclopropylmethyl)pyrrolo [2,3-b]pyridin-6-yl]ethyl]-1-methylpyrazole-4-carboxamide]",7.46
6,CC(C)c1c(-c2cc3ccc(N(C(F)F)S(C)(=O)=O)nc3n2CC2CC2)nc2cc(C(=O)N3[C@@H]4CC[C@@H](N)[C@H]3CC4)ccn12 [Example 434],5.47
7,"COc1cc(C(=O)N[C@@H]2CC[C@H](C)NC2)cc2nc(-c3cc4ccc(N(C(F)F)S(C)(=O)=O)nc4n3CC3CC3)c(C)n12 [Example 315, 2-[1-(cyclopropylmethyl)-6-[difluoromethyl (methylsulfonyl)amino]pyrrolo[2,3-b]pyridin-2-yl]-5-methoxy-3-methyl-~{N}-[(3~{R},6~{S})-6-methylpiperidin-3-yl]imidazo[1,2-a] pyridine-7-carboxamide]",6.46
8,"COc1cc(C(=O)N2[C@H]3CC[C@@H]2[C@H](N)C3)cc2nc(-c3cc4ccc([C@@H](C)NC(=O)c5cnc(C6CC6)o5)nc4n3CC3CC3)c(C)n12 [Example 79, ~{N}-[(1~{R})-1-[2-[7-[(1~{R},2~{R},4~{S})-2-amino-7-azabicyclo[2.2.1]heptane-7-carbonyl]-5-methoxy-3-methylimidazo [1,2-a]pyridin-2-yl]-1-(cyclopropylmethyl)pyrrolo [2,3-b]pyridin-6-yl]ethyl]-2-cyclopropyl-1,3-oxazole-5-carboxamide]",7.25
9,"COc1cc(C(=O)N2C[C@H]3CC(F)[C@@H]2[C@@H]3N)cc2nc(-c3cc4ccc(N(C(F)F)S(C)(=O)=O)nc4n3CC3CC3)c(C)n12 (stereo partly drawn) [Example 361, N-[2-[7-[(1S,4R,7R)-7-amino-6-fluoro-2-azabicyclo[2.2.1]heptane-2-carbonyl]-5-methoxy-3-methyl-imidazo[1,2-a]pyridin-2-yl]-1-(cyclopropylmethyl)pyrrolo [2,3-b]pyridin-6-yl]-N-(difluoromethyl) methanesulfonamide]",6.59
10,"COc1cc(C(=O)N2[C@H]3CC[C@@H]2[C@H](N)C3)cc2nc(-c3cc4ccc(C5CCN(C(=O)N6CCCC6)C5)nc4n3CC3CC3)c(C)n12 (some centres unmarked) [Example 529, [(1~{R},2~{R},4~{S})-2-amino-7-azabicyclo [2.2.1]heptan-7-yl]-[2-[1-(cyclopropylmethyl)-6-[1-(pyrrolidine-1-carbonyl)pyrrolidin-3-yl]pyrrolo [2,3-b]pyridin-2-yl]-5-methoxy-3-methylimidazo [1,2-a]pyridin-7-yl] methanone]",6.82
11,"COc1cc(C(=O)N2CC[C@H]3C[C@@]3(N)C2)cc2nc(-c3cc4ccc(N(C(F)F)S(C)(=O)=O)nc4n3CC3CC3)c(C)n12 [Example 362, ~{N}-[2-[7-[(1~{S}, 6~{S})-1-amino-3-azabicyclo[4.1.0]heptane-3-carbonyl]-5-methoxy-3-methylimidazo [1,2-a]pyridin-2-yl]-1-(cyclopropylmethyl)pyrrolo [2,3-b]pyridin-6-yl]-~{N}-(difluoromethyl) methanesulfonamide]",6.61

# Now from value to compound:
row,pIC50,SMILES
1,7.05,"COc1cc(C(=O)N2[C@H]3CC[C@@H]2[C@H](N)C3)cc2nc(-c3cc4ccc([C@@H](C)NC(=O)NC(C)(C)C)nc4n3CC3CC3)c(C)n12 [Example 244, 1-[(1~{R})-1-[2-[7-[(1~{R},2~{R},4~{S})-2-amino-7-azabicyclo[2.2.1]heptane-7-carbonyl]-5-methoxy-3-methylimidazo [1,2-a]pyridin-2-yl]-1-(cyclopropylmethyl)pyrrolo [2,3-b]pyridin-6-yl]ethyl]-3-~{tert}-butylurea]"
2,6.51,"CCO[C@@H]1CCN(C(=O)c2cc(OC)n3c(C)c(-c4cc5ccc([C@@H](C)NC(=O)c6ccccc6)nc5n4CC4CC4)nc3c2)C[C@@H]1N [Example 112, ~{N}-[(1~{R})-1-[2-[7-[(3~{S},4~{R})-3-amino-4-ethoxypiperidine-1-carbonyl]-5-methoxy-3-methylimidazo[1,2-a]pyridin-2-yl]-1-(cyclopropylmethyl)pyrrolo [2,3-b]pyridin-6-yl]ethyl]benzamide]"
3,6.52,"COc1cc(C(=O)N2CCC[C@@H](N)C2)cc2nc(-c3cc4ccc([C@@H](C)CC(=O)N(C)C)nc4n3CC3CC3)c(C)n12 [Example 535, (3~{S})-3-[2-[7-[(3~{R})-3-aminopiperidine-1-carbonyl]-5-methoxy-3-methylimidazo[1,2-a]pyridin-2-yl]-1-(cyclopropylmethyl)pyrrolo [2,3-b]pyridin-6-yl]-~{N},~{N}-dimethylbutanamide]"
4,6.68,"COc1cc(C(=O)N2CCC[C@@H](N)C2)cc2nc(-c3cc4ccc([C@@H](C)NC(=O)OC(C)(C)C)nc4n3CC3CC3)c(C)n12 [Example 257, ~{tert}-butyl~{N}-[(1~{R})-1-[2-[7-[(3~{R})-3-aminopiperidine-1-carbonyl]-5-methoxy-3-methylimidazo[1,2-a]pyridin-2-yl]-1-(cyclopropylmethyl)pyrrolo [2,3-b]pyridin-6-yl]ethyl] carbamate]"
5,6.39,"CCc1ccc2cc(-c3nc4cc(C(=O)N5CC[C@@H](OC)[C@@H](N)C5)cc(OC)n4c3C)n(CC3CC3)c2n1 [Example 579, [(3~{S},4~{R})-3-amino-4-methoxypiperidin-1-yl]-[2-[1-(cyclopropylmethyl)-6-ethylpyrrolo[2,3-b]pyridin-2-yl]-5-methoxy-3-methylimidazo[1,2-a]pyridin-7-yl]methanone]"
6,6.65,COC(=O)N[C@H](C)c1ccc2cc(-c3nc4cc(C(=O)N5CCC[C@@H](N)C5)cc(OC)n4c3C)n(CC3CC3)c2n1 [Example 258]
7,7.63,"COc1cc(C(=O)N2[C@H]3CC[C@@H]2[C@H](N)C3)cc2nc(-c3cc4ccc([C@@H](C)NC(=O)C5(OC)CC5)nc4n3CC3CC3)c(C)n12 [Example 42, ~{N}-[(1~{R})-1-[2-[7-[(1~{R},2~{R},4~{S})-2-amino-7-azabicyclo [2.2.1]heptane-7-carbonyl]-5-methoxy-3-methylimidazo [1,2-a]pyridin-2-yl]-1-(cyclopropylmethyl)pyrrolo[2,3-b]pyridin-6-yl]ethyl]-1-methoxycyclopropane-1-carboxamide]"
8,7.18,"COc1cc(C(=O)N2[C@H]3CC[C@@H]2[C@H](N)C3)cc2nc(-c3cc4ccc([C@@H](C)NC(=O)C5C(C)(C)C5(F)F)nc4n3CC3CC3)c(C)n12 (some centres unmarked) [Example 103, ~{N}-[(1~{R})-1-[2-[7-[(1~{R},2~{R},4~{S})-2-amino-7-azabicyclo[2.2.1]heptane-7-carbonyl]-5-methoxy-3-methylimidazo [1,2-a]pyridin-2-yl]-1-(cyclopropylmethyl)pyrrolo [2,3-b]pyridin-6-yl]ethyl]-2,2-difluoro-3,3-dimethylcyclopropane-1-carboxamide]"
9,7.21,"COc1cc(C(=O)N2[C@H]3CC[C@@H]2[C@H](N)C3)cc2nc(-c3cc4ccc([C@@H](C)NC(=O)N5C[C@@H](F)[C@@H](F)C5)nc4n3CC3CC3)c(C)n12 [Example 245, (3~{R},4~{S})-~{N}-[(1~{R})-1-[2-[7-[(1~{R},2~{R},4~{S})-2-amino-7-azabicyclo [2.2.1]heptane-7-carbonyl]-5-methoxy-3-methylimidazo [1,2-a]pyridin-2-yl]-1-(cyclopropylmethyl)pyrrolo [2,3-b]pyridin-6-yl]ethyl]-3,4-difluoropyrrolidine-1-carboxamide]"
